This is an account of results in patent US6545033B1, “Fused 1-(2,6-dichloro-4-trifluoromethylphenyl)-pyrazoles, the synthesis thereof and the use thereof as pesticides” (3-Dimensional Pharmaceuticals, Inc., priority 1999, dated 2003).

Assay [1] deals with houseflies (Musca domestica). In words: In vivo housefly contact assay. The settings on record: contact in coated glass test tube, about 24 hours; mM = concentration of the DMSO solution, about 1 μL applied. How it is done: This example describes an in vivo assay to screen compounds for their ability to kill houseflies via contact. Newly emerged houseflies (Musca domestica, available from Rincon-Vitova Insectaries, Inc., Ventura, Calif.) were sedated with carbon dioxide gas, collected in 50 mL polypropylene conical tubes containing filter paper saturated with 10% (w/w) sucrose in water, and allowed to feed at room temperature for about 2-4 hours. Test compounds were dissolved as in dimethylsulfoxide (DMSO) at concentrations ranging from about 0.05 mM to about 100 mM. About 1 μL of dissolved test compound and about 100 μL of isopropanol were dispensed into the bottom of a 9 mL screw-top glass test tube. Positive control test tubes were prepared in the same manner except that no test compounds were dissolved in the DMSO. Each test tube was rolled to coat the sides with the chemical solution, and allowed to air dry 24-48 hours. About 20 houseflies were sedated by refrigeration at 0-4° C. and transferred to each test tube. Each test tube was sealed with organdy cloth secured by an open top screw cap and laid horizontally in the dark. After about 24 hours, the healthy, moribund, and dead houseflies in each test tube were counted. The percentage of dead houseflies in each test tube was then calculated using the formula M=100(D−(FC/100))/(F−(FC/100)), in which M is the percentage of dead houseflies due to the addition of the test compound, D is the number of dead houseflies in the test tube, F is the total number of houseflies in the test tube, and C is the percentage of dead houseflies in the control test tubes.

Assay [2] concerns cat fleas (Ctenocephalides felis), CO Fleas. The experiment in a line: In vivo cat flea contact assay, CO fleas. Particulars: contact with treated filter disk in vial, about 24-30 hours, mM = concentration of the DMSO solution, about 1 μL applied; for LC50: Ctenocephalides felis, topical, read-out: LD50 (mM), CO Fleas. How it is done: (§1) This example describes an in vivo assay to screen compounds for their ability to kill cat fleas via contact.
(§2) Test compounds were dissolved in dimethylsulfoxide (DMSO) at concentrations ranging from about 0.05 mM to about 100 mM. About 1 μL of dissolved test compound was dispensed onto a 6 mm (diameter) GF/C filter disk (filter material available from Whatman Inc., Clifton, N.J.) in the bottom of a 4 mL screw-top glass vial and allowed to air dry 24-48 hours. Positive control vials were prepared in the same manner except that no test compounds were dissolved in the DMSO. About 20 newly emerged cat fleas (Ctenocephalides felis) were sedated by refrigeration at 0-4° C. and transferred to each vial. Each vial was sealed with a thin, perforated Teflon™ septum secured by an open top screw cap and held vertically in the dark. After about 24-30 hours, the healthy, moribund, and dead cat fleas in each vial were counted. The percentage of dead cat fleas in each vial was then calculated using the formula M=100(D−(FC/100))/(F−(FC/100)), in which M is the percentage of dead cat fleas due to the addition of the test compound, D is the number of dead cat fleas in the test vial, F is the total number of cat fleas in the test vial, and C is the percentage of dead cat fleas in the control vials.

The subject of assay [3] is cat fleas (Ctenocephalides felis), NC Fleas. The experiment in a line: In vivo cat flea contact assay, NC fleas. Particulars: contact with treated filter disk in vial, about 24-30 hours; mM = concentration of the DMSO solution, about 1 μL applied. How it is done:
as §1, §2

Assay [4] has as its target T1, Housefly GABA receptors (Musca domestica, UniProt Q75NA5).
T1 sequence (Q75NA5 30-576): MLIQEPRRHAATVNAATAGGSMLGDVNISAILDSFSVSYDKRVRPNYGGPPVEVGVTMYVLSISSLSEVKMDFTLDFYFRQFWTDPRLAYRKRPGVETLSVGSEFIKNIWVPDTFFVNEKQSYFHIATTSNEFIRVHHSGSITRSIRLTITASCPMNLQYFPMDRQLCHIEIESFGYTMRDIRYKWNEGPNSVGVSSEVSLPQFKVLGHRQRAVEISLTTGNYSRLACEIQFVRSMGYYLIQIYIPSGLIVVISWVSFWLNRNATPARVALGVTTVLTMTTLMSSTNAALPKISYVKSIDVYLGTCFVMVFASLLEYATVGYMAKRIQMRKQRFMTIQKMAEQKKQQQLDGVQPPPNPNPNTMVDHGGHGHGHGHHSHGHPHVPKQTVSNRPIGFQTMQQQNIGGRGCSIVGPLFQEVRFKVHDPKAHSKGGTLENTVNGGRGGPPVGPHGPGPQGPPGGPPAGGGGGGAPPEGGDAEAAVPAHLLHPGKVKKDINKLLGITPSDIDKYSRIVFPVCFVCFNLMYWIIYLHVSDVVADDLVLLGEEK
The experiment in a line: In vitro assay of binding to housefly GABA receptors (3H-EBOB displacement, housefly neuronal membranes). Particulars: for Compounds with the most activity (housefly 3H-EBOB binding): housefly neuronal membranes. The procedure:
Newly emerged houseflies (Musca domestica, available from Rincon-Vitova Insectaries, Inc., Ventura, Calif.) were sedated with carbon dioxide gas, collected in 50 mL polypropylene conical tubes, and immediately frozen by submersion in liquid nitrogen. Unless specified, all of the following work was performed at 0-4° C. After removal from liquid nitrogen, the tubes of frozen houseflies were shaken vigorously by hand to decapitate the houseflies. […] Contaminating wings were removed by holding a vacuum nozzle approximately 4 cm above the heads, and contaminating legs were separated from the heads by passage through a #15 mesh screen. All remaining debris were removed from the pool of heads using forceps. The purified heads were collected in 50 mL polypropylene conical tubes and stored in liquid nitrogen until processed further.
About 13 g of purified housefly heads were suspended in about 65 mL of 10% sucrose buffer (10% sucrose (w/w) in 10 mM Tris, pH 7.5). The heads were homogenized for about 1 minute, using a Tissumizer™ homogenizer equipped with a SDT-100EN probe (available from Tekmar-Dohrmann, Cincinnati, Ohio) running at 70% of its maximum speed. The extract was further homogenized by about 5 passes through a 40 mL Dounce tissue grinder. The extract was then centrifuged at about 500×g for about 5 minutes to pellet large debris. The supernatant was collected; the pellet was washed with an additional 65 mL of 10% sucrose buffer and centrifuged at 500×g for about 5 minutes. The second supernatant was collected and combined with the first supernatant, and the pool was filtered through a 100μ CellMicroSieve™ mesh to remove residual debris (available from BioDesign of New York, Carmel, N.Y.).
Neuronal membranes containing active GABA receptors were collected via sucrose density centrifugation by the following method. About 8 mL of 35% sucrose buffer (35% sucrose (w/w) in 10 mM Tris, pH 7.5), were dispensed into each of six 38 mL ultracentrifuge tubes. These layers were overlaid with about 8 mL of 20% sucrose buffer (20% sucrose (w/w) in 10 mM Tris, pH 7.5), and finally overlaid with about 20 mL of filtered extract supernatant. The tubes were centrifuged at about 120,000×g for about 100 min at 4° C. After centrifugation, the 10% sucrose layer and most of the 20% sucrose layer were removed by aspiration. The membranes at the interface of the 20% sucrose and 35% sucrose layers were collected, pooled, diluted with 10% sucrose buffer, and centrifuged at about 120,000×g for about 40 min at 4° C. After centrifugation, the supernatant was discarded, and the pellets resuspended in about 6.5 mL of assay buffer (10 mM phosphate, 300 mM NaCl, pH 7.5) using a 10 mL Potter-Elvehjem tissue grinder with a Teflon® pestle. Protein concentration was determined by the Bio-Rad Protein Assay (available from Bio-Rad Laboratories, Hercules, Calif.) using bovine serum albumin as a standard. The membranes were aliquoted and stored in liquid nitrogen for up to 2 months before use.
Housefly neuronal membranes were prepared as described above from housefly heads. Test compounds were dissolved in dimethylsulfoxide (DMSO) at concentrations ranging from about 2 nM to about 100 mM. About 1 μL of a dissolved test compound was dispensed into a well of a 96-well polystyrene plate. About 100 μL of ice cold assay buffer (10 mM phosphate, 300 mM NaCl, pH 7.5) containing 5.2 nM 4′-Ethynyl-4-n-[2,3-^3H2]propylbicycloorthobenzoate (^3H-EBOB, 38 Ci/mmol, available from NEN Life Science Products, Boston, Mass.) was added to the well, followed by about 100 μL of ice cold assay buffer containing about 0.5-1.0 mg/mL housefly neuronal membranes. Control wells were prepared the same way except that the housefly neuronal membranes were omitted from the “negative” wells, and the test compounds were omitted from the “positive” wells. […]

Assay [5] has as its target Mouse Brain GABA Receptors. In words: In vitro assay of binding to mouse brain GABA receptors (3H-EBOB displacement, mouse brain membranes). The settings on record: displacement of 5.2 nM 3H-EBOB, about 45 min at about 24° C. How it is done: Mouse brains were obtained from carbon dioxide-asphyxiated Swiss-Webster mice, washed with phosphate-buffered saline, and used either fresh or after storage at −80° C. for up to 10 months. Unless specified, all preparation steps were performed at 0-4° C. For each preparation, 20 brains were suspended in about 40 mL of 0.32 M sucrose and homogenized for about 2 minutes, using a Tissumizer™ homogenizer equipped with a SDT-100EN probe (available from Tekmar-Dohrmann, Cincinnati, Ohio) running at 50% of its maximum speed. The extract was centrifuged for about 5 min at about 1000×g to pellet intact brain tissue. The supernatant was retained and the pellet washed with an additional 40 mL of 0.32 M sucrose and centrifuged at 1000×g for about 5 minutes. The 1000×g supernatants were combined and centrifuged at about 10,000×g for about 20 min to pellet membranes. The 10,000×g supernatant was discarded and the pellet was resuspended in about 20 mL of water containing 1 mM EDTA. The sample was dialyzed two times for about 3 hours each against about 3 L of water. The sample was then centrifuged at about 25,000×g for about 30 min to pellet the membranes. After centrifugation, the supernatant was discarded and the wet pellet recovered. The protein concentration of the pellet was determined by the Bio-Rad Protein Assay (available from Bio-Rad Laboratories, Hercules, Calif.) using bovine serum albumin as a standard. The membranes were aliquoted and stored at −80° C. for up to 6 months before use.
Mouse brain membranes were prepared as described above from dissected mouse brains. Test compounds were dissolved in dimethylsulfoxide (DMSO) at concentrations ranging from about 2 nM to about 100 mM. About 1 μL of a dissolved test compound was dispensed into a well of a 96-well polystyrene plate. About 100 μL of ice cold assay buffer (10 mM phosphate, 300 mM NaCl, pH 7.5) containing 5.2 nM 4′-Ethynyl-4-n-[2,3-^3H2]propylbicycloorthobenzoate (^3H-EBOB, 38 Ci/mmol, available from NEN Life Science Products, Boston, Mass.) was added to the well, followed by about 100 μL of ice cold assay buffer containing about 0.25-0.5 mg/mL mouse brain membranes. Control wells were prepared the same way except that the mouse brain membranes were omitted from the “negative” wells, and the test compounds were omitted from the “positive” wells. The samples were incubated for about 45 min at about 24° C. and then filtered on a 0.1% (w/v) polyethylenimine-soaked glass fiber Filtermat A (available from EG&G Wallac Inc., Gaithersburg, Md.) followed by four 100 mL rinses of cold assay buffer using a Harvester 96® cell harvester (available from Tomtec, Orange, Conn.). The filtermat was air dried and radioactivity bound to the filtermat was detected with either a 1450 MicroBeta® Trilux scintillation counter (available from EG&G Wallac Inc.) or a Topcount NXT™ scintillation counter (available from Packard Instrument Co., Meriden, Conn.) using standard methods.
Specific binding was considered to be the difference between total ^3H bound to the mouse brain membranes in the absence of any inhibitors and nonspecific ^3H bound to the mouse brain membranes upon the addition of 5 μM unlabeled EBOB. The average radioactivity contained in the “negative” wells was subtracted from each of the assay wells. […] Compounds that displaced ^3H-EBOB specifically bound to the mouse brain membranes were tested at 24-48 different final concentrations, varying from about 1 nM to about 125 μM, in order to determine the concentration at which 50% of the maximum inhibition due to the addition of that compound was observed (IC50). […]

For `O=S1(=O)Cc2cn(-c3c(Cl)cc(C(F)(F)F)cc3Cl)nc2C1` [3″, 2-[2,6-Dichloro-4-(trifuoromethyl)phenyl]-4,6-dihydrothieno-[3,4-c]pyrazole-5,5-dione], in assay [1], the “LD50 (mM), Flies” value came out at 5 mM. In assay [2], the “LD50 (mM), CO Fleas” value is listed as more than 100 mM. For the same compound, the “LD50 (mM), NC Fleas” value in assay [3] is recorded as more than 100 mM.
For the compound `FC(F)(F)c1cc(Cl)c(-n2cc3c(n2)CCCC3)c(Cl)c1` [Compound 13, 2-[2,6-Dichloro-4-(trifluoromethyl)phenyl]-4,5,6,7-tetrahydro-2H-indazole], the “Compounds with the most activity (housefly 3H-EBOB binding)” value (shortened to “Compounds with the most activity”) in assay [4] is given as “most activity”. For the same compound, the “LD50 (mM), Flies” value in assay [1] is more than 100 mM. In addition, the LC50 in assay [2] turned out to be 37.5 mM. The “LD50 (mM), NC Fleas” value in assay [3] turned out to be 20 mM.
Consider `FC(F)(F)c1cc(Cl)c(-n2cc3c(n2)C2CCC3C2)c(Cl)c1` (stereo not shown) [Compound 35, 3,4-Diaza-4-[2,6-dichloro-4-(trifluoromethyl)phenyl]tricyclo-[5.2.1.0^2.6]deca-2,5-diene], for which the “Compounds with the most activity” value in assay [4] is reported as “most activity”. For the same compound, the “LD50 (mM), Flies” value in assay [1] worked out at 48 mM. Further, the LC50 in assay [2] worked out at 17 mM. Besides, the “LD50 (mM), NC Fleas” value in assay [3] is given as 12 mM.
With `CC1(C)CCc2nn(-c3c(Cl)cc(C(F)(F)F)cc3Cl)cc21` [Compound 38, 2-[2,6-Dichloro-4-(trifluoromethyl)phenyl]-4,4-dimethyl-2,4,5,6-tetrahydrocyclopenta[c]pyrazole], the “Compounds with the most activity” value in assay [4] is on record as “most activity”. Moreover, the “LD50 (mM), Flies” value in assay [1] is more than 100 mM. Besides, in assay [2], the LC50 was determined as 54 mM. The “LD50 (mM), NC Fleas” value in assay [3] amounted to 15 mM.
Take `CC1(O)c2cn(-c3c(Cl)cc(C(F)(F)F)cc3Cl)nc2C(F)C1F` (stereo not shown) [Compound 88, 2-[2,6-Dichloro-4-(trifluoromethyl)phenyl]-5,6-difluoro-4-methyl-2,4,5,6-tetrahydrocyclopenta[c]pyrazol-4-ol]: the IC50 in assay [4] (displacement of 5.2 nM 3H-EBOB, housefly head neuronal membranes, about 45 min at about 24° C., read-out: IC50 (nM), Fly Head) was 350 nM. Also, in assay [2], the LC50 turned out to be 5 mM.
Regarding `FC(F)(F)c1cc(Cl)c(-n2cc3c(n2)CC(F)(F)C3(F)F)c(Cl)c1` [Compound 92, 2-[2,6-Dichloro-4-(trifluoromethyl)phenyl]-4,4,5,5-tetrafluoro-2,4,5,6-tetrahydrocyclopenta[c]pyrazole], the IC50 in assay [5] was 60 nM. The LC50 in assay [2] is less than 0.5 mM.
